The values that follow come from patent US20250236596A1, “HYDROXYLAMINE-BASED EGFR INHIBITORS FOR TREATMENT OF CANCER WITH BRAIN METASTASES” (University of Georgia Research Foundation, Inc., priority 2022, published 2025).

pIC50: −log10 of the molar value. Where only a bound is given, the exact number is not on record here.

In one data set the target is CYP3A4 (Homo sapiens, UniProt P08684). As to the kind of experiment: Human CYP450 inhibition in human liver microsomes, CYP3A4. The note with it: pooled human liver microsomes, probe midazolam (1 μM), 1′-hydroxylation. In kind it is in vitro ADME. How it is done: (§1) Assessment of compound 15 was carried out at Pharmaron Inc. for its potential to inhibit cytochrome P450 (CYP) isoforms using human liver microsomes. The activities tested were CYP1A2-mediated phenacetin O-demethylation, CYP2C19-mediated (S)-mephenytoin 4′-hydroxylation, CYP2C9-mediated diclofenac 4′-hydroxylation, CYP2D6-mediated dextromethorphan O-demethylation and CYP3A4-mediated midazolam 1′-hydroxylation. Concentrations of substrates were phenacetin (40 μM), mephenytoin (50 μM), diclofenac (6 μM), dextromethorphan (2 μM) and midazolam (1 μM). Probe substrates phenacetin, mephenytoin and dextromethorphan were incubated at 37° for 20 min. Probe substrates diclofenac and midazolam were incubated at 37° for 5 min. […] The reactions were initiated by adding NADPH (1 mM final concentration) after a 5 min-preincubation and the assay was ran in duplicate (n=2). Samples were analyzed by UPLC-MS/MS.
Chain of CYP3A4 (P08684 whole entry, canonical isoform): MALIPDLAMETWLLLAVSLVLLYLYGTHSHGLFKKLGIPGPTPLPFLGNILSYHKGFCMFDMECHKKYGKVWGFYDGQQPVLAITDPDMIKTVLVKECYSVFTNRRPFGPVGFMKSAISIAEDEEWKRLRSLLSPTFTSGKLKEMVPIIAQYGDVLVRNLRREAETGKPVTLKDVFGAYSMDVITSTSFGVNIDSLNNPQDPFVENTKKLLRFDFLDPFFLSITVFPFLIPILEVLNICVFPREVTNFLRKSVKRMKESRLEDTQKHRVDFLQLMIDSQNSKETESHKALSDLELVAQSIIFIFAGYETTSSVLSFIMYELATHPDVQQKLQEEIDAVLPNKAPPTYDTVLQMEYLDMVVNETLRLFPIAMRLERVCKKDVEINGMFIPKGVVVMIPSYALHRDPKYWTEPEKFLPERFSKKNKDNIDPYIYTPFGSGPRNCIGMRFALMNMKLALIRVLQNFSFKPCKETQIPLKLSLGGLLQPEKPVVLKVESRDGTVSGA
A general note: Liver microsomes are a subcellular fraction often used to study metabolism.

For another data set, the target named is CYP2C9 (Homo sapiens, UniProt P11712). The data set is described as follows: Human CYP450 inhibition in human liver microsomes, CYP2C9. In kind it is in vitro ADME. The note with it: pooled human liver microsomes, probe diclofenac (6 μM), 4′-hydroxylation. How it is done:
as §1

Data set [1] relates to HER2-positive breast cancer cell lines: AU565, SK-BR-3, BT474 and ZR-75-30. As to the kind of experiment: CellTiter-Glo viability assay, HER2+ breast cancer cell lines. In kind it is cell-based, human. The note with it: AU565, SK-BR-3, BT474, ZR-75-30; result in words. The procedure:
(§2) The A431, HCC827, SK-BR-3, ZR-75-30, AU565 and Caco-2 cell lines were obtained from ATCC. The NCI-H1975 cell line was obtained from SIBS. The NCI-H3255 cell line was obtained from CoBioer. Engineered Ba/F3 cell lines were obtained from Crown Bioscience. MCKII-MDR1 cells were obtained from the Netherlands Cancer Institute. HEK293 cells were obtained from Invitrogen. A431 cells were cultured in DMEM (Life Technologies) with 10% FBS. HCC827, NCI-H1975 and AU565 cells were cultured in RPMI1640 (Invitrogen) with 10% FBS. NCI-H3255 cells were cultured in BEGM (Lonza) with 10% FBS. Ba/F3 EGFR-del E746_A750/C797S and Ba/F3 EGFR-L858R/C797S cells were cultured in RPMI (Invitrogen) with 10% FBS. SK-BR-3 cells were cultured in McCoy's 5a (Invitrogen) with 10% FBS. ZR-75-30 cells were cultured in RPMI1640 (Invitrogen) with 20% FBS. BT474 cells were cultured in DMEM (Gibco) with 10% FBS and 10 μg/mL Insulin. Caco-2 and MCKII-MDR1 culture information is given in the permeability studies section. […]
(§3) Viability assays using A431, HCC827, NCI-H1975, NCI-H3255, Ba/F3 EGFR-del E746_A750/C797S, Ba/F3 EGFR-L858R/C797S, AU565, SK-BR-3 and ZR-75-30 cells were performed at Crown BioScience. […] Dose-response curves were generated and used to calculate the IC50 values which were calculated on GraphPad Prism from the non-linear regression equation fitted with a sigmoidal dose response and are presented as the mean±SEM.

A further data set relates to Caco-2 cells. The data set is described as follows: Caco-2 cell permeability assay. In kind it is in vitro ADME. The settings on record: result in words. The procedure: Compounds were evaluated at Pharmaron Inc. for their ability to permeate Caco-2 cells and MDCKII-MDR1 cells. A 96-well HTS Transwell plate (Corning) was used for the Caco-2 and MDCKII-MDR1 cell seeding. Caco-2 cells were seeded at a density of 6.86×10^5 cells/mL and cultivated for 14-18 days prior to assays. MDCKII-MDR1 cells were seeded at a density of 1.56×10^6 cells/mL and cultivated for 4-8 days prior to assays. To determine the rate of drug transport in both the absorptive (apical to basolateral (A-B)) and secretory (basolateral to apical (B-A)) directions, compounds (5 μM in DMSO for Caco-2 cells, and 1 μM in DMSO for MDCKII-MDR1 cells) were added to the donor wells. Plates were incubated at 37° C. for 2 h and samples (50 μL) were taken at the beginning and end of the incubation in both the donor and acceptor wells with the assay run in duplicate (n=2). Samples were analyzed by LC-MS/MS. The apparent permeability coefficient (Papp) in units (cm/s×10^−6) was calculated using the following equation.
where, VA represents the volume (mL) in the acceptor well. Area is the surface of the membrane (0.143 cm^2 for Transwell-96 well plate) and time is the total transport time in sec.
The efflux ratio was determined using the following equation: Efflux ratio=Papp (B-A)/Papp(A-B)
Where, Papp (B-A) indicates the apparent permeability in the basolateral to apical direction, and Papp (A-B) indicates the apparent permeability in the apical to basolateral direction.
In general terms: Caco-2 cells form a polarised layer with tight junctions and transporters.

The target of a further data set is CYP2C19 (Homo sapiens, UniProt P33261). As to the kind of experiment: Human CYP450 inhibition in human liver microsomes, CYP2C19. In kind it is in vitro ADME. The settings on record: pooled human liver microsomes, probe (S)-mephenytoin (50 μM), 4′-hydroxylation. How it is done: as §1
Chain of CYP2C19 (P33261 whole entry): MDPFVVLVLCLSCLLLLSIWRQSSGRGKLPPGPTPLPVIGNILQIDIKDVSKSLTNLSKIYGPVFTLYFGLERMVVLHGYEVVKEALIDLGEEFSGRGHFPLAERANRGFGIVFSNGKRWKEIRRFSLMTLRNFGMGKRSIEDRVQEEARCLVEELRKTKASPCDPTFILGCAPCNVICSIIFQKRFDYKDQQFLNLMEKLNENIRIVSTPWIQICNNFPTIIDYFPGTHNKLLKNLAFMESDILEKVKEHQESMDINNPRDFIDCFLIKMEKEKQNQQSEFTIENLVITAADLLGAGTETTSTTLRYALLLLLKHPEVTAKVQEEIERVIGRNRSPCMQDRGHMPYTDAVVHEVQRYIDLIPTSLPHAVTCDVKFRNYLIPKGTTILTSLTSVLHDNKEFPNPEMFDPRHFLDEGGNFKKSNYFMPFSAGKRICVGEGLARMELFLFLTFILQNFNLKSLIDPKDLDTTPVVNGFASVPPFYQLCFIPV
The test system of data set [2] is Ba/F3 EGFR-del E746_A750/C797S cells. As to the kind of experiment: CellTiter-Glo viability assay, Ba/F3 EGFR-del E746_A750/C797S. In kind it is cell-based. The note with it: Mus musculus, BaF3, osimertinib-resistant, 72 h, read-out: antiproliferative IC50. How it is done: as §2, §3
In general terms: In ATP-based viability assays light output follows the ATP content of the culture.

Data set [3] in a line: Solubility in PBS at pH 7.4. In kind it is physicochemical. The settings on record: compared to both 1 and 6; result in words. How it is done:
Solubility was determined by Pharmaron Inc. and each compound was assessed in duplicate (n=2) by adding 15 μL of compound stock solution (10 mM in DMSO) into a 96-well plate along with 485 μL of buffer followed by shaking at 25° C., 1,100 rpm for 2 h. Wells were filtered and samples (5 μL) were taken followed by dilution with an equal volume of DMSO (5 μL) and 490 μL of aqueous solution. Samples were analyzed by LC-MS/MS.

Data set [4] has as its system HCC827 NSCLC cells (EGFR del E746_A750). As to the kind of experiment: CellTiter-Glo viability assay, HCC827. In kind it is cell-based. The note with it: Homo sapiens; HCC827, EGFR del E746_A750, 72 h; read-out: antiproliferative IC50. How it is done:
as §2, §3

Chain of CYP2C9 (P11712 whole entry): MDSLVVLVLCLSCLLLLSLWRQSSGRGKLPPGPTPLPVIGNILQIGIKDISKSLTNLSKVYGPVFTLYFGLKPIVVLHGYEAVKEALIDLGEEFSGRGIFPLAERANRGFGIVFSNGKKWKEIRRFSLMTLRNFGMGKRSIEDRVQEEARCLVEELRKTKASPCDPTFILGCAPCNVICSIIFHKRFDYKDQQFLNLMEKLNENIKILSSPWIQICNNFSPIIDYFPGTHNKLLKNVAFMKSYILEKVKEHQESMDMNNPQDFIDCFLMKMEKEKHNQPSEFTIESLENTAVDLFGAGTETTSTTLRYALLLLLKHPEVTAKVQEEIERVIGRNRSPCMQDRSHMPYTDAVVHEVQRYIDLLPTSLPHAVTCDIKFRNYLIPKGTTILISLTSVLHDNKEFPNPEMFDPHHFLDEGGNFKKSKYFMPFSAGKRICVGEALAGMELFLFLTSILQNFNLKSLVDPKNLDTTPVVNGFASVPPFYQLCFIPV

On to `COc1cc2ncnc(Nc3cccc(Cl)c3F)c2cc1OCCON1CCN(C)CC1` [Compound 15, N-(3-chloro-2-fluorophenyl)-7-methoxy-6-(2-((4-methylpiperazin-1-yl)oxy)ethoxy)quinazolin-4-amine], for which the IC50 at 5 min against CYP3A4 and on CYP2C9 was more than 30000 nM in each case. Moreover, the antiproliferative activity result in data set [1] is on record as “moderate antiproliferative activity”. In the data set on Caco-2 cells, the efflux result is “reduced efflux ratios”. In the data set on Caco-2 cells, the permeability entry is listed as “remarkably enhanced permeability”. The molecule further gave a concentration for half-maximal inhibition (IC50) at 20 min on CYP2C19 of more than 30000 nM. For the same molecule, the negative-log IC50 (pIC50) was 8.60 in data set [2] and 8.51 in data set [4]. Also, in data set [3], the aqueous solubility entry is “markedly improved aqueous solubility”.

For orientation: IC50 means the concentration at which inhibition is half-maximal. Read a low IC50 as inhibition by little substance. Broadly, the pIC50 is the negative decadic logarithm of the IC50, by convention in mol/L.
